The values below come from publication PMC9814205, “Targeting undruggable carbohydrate recognition sites through focused fragment library design” (Communications Chemistry, 2022).

SMILES strings stand for the structures.

For test [1], the target named is T1, LecA (Pseudomonas aeruginosa, UniProt Q05097).
T1 construct: made in house
The settings on record: positive control in FP assay, unit inferred; cited from earlier work.

Another test deals with T2, 5FW LecA (PA-IL) (Pseudomonas aeruginosa, UniProt Q05097).
T2 construct: made in house
T2 sequence (Q05097 2-122): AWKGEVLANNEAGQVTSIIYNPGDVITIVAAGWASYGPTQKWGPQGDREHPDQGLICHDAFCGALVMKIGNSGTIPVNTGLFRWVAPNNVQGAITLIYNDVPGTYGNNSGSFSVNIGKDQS
Kind of test: PrOF NMR with 5-fluorotryptophan-labeled LecA. It counts as binding. As for the experimental part:
PrOF NMR was performed as reported previously. Briefly, 150 µM 5FW LecA was recorded alone and in the presence of DMSO or 2–4 mM compounds in TBS/Ca^2+ buffer. The difference in chemical shift perturbations of W42 in 5FW LecA free vs bound forms was followed to determine Kd values of compounds. The Kd values were calculated according to the one-site-binding model in Origin(Pro) 2020b (OriginLab Corp., USA) from two or three independent titrations. Ligand efficiency values were calculated according to Eq. (1) for a temperature of 310 K.

Test [2] concerns the target T1, LecA. Kind of test: SPR with immobilized LecA. The conditions noted are these: compounds at 0.2 and 1 mM. It counts as binding. As for the experimental part: All experiments were performed on a BIACORE X100 instrument (GE Healthcare) at 25 °C in phosphate-buffered saline (10 mM phosphate buffer pH 7.4, 2.7 mM KCl, 137 mM NaCl, 0.05% Tween-20, 100 µM CaCl2, 5% DMSO). LecA was immobilized onto a CM7 chip (BIACORE) following standard amine coupling procedures. The CM7 chip was activated by three injections of a NHS/EDC mixture with a contact time of 540 s at a flow rate of 10 µL min^−1 until the response exceeded 800 RU, followed by multiple injections of LecA dissolved in 10 mM sodium acetate pH 4.5 (100 µg/mL) onto channel 2 (contact time of 540 s at a flow rate of 10 µL min^−1). A minimum of 10,000 RU of LecA was captured onto the chip. Initial binding screens were performed with the injections of 0.2 and 1 mM of each hydroxamate (association 30 s, dissociation 60 s, 30 µL min^−1 flow rate), to identify the initial binders eliciting dose-response behaviors. Injection of the positive control (0.1 mM 4-Nitrophenyl-β-D-galactoside) was included after every forth injection cycle to monitor the activity of immobilized LecA throughout the binding screen experiments. All data evaluation was performed using BIACORE X100 evaluation software (v.2.0).

Test [3] addresses T1, LecA. As to the kind of experiment: Competitive fluorescence polarization (FP) assay. It is filed as binding. The settings on record: read-out: Inhibition in FP, compared to MeGal; measured at 4 mM (16 h). As for the experimental part: The FP assay was performed in a black 384-well plate (Greiner Bio-One, Germany, 781900) with the final volume of 20 µL as described previously. Briefly, 10 µL of a sample solution series (10–0.078 mM) in TBS buffer containing 10 mM Ca^2+ (TBS/Ca^2+-buffer) and 20% DMSO were added in technical triplicates to 10 µL LecA (40 µM) preincubated with a galactose-based Cy5 conjugate[68] (20 nM) in TBS/Ca^2+-buffer. […] The plate was sealed (EASYseal, Greiner Bio-One, 676,001), centrifuged (1 min, 1500 rpm, 25 °C) and incubated in a humidity chamber for 16 h. The fluorescence was measured with an excitation 590 nm and emission 675 nm filter[68] on a PheraStar FS plate reader (BMG Labtech GmbH, Germany). The blank signal of TBS/Ca^2+-buffer containing 10% DMSO was subtracted and the compounds were analyzed with the MARS Data Analysis Software (BMG Labtech GmbH Germany) using the four-parameter variable slope model. The top and bottom plateaus were defined according to the positive controls. The graphs were visualized using Graphpad Prism 5. The percentage (%) of inhibition was calculated at the highest concentration compared with 10 mM MeGal set to 100%.
A general note: Fluorescence polarisation rises when a labelled molecule tumbles more slowly, as on binding a larger partner.

The next test concerns the target T3, 15N LecA (Pseudomonas aeruginosa, UniProt Q05097).
T3 construct: made in house
Kind of test: 1H-15N TROSY NMR with 15N LecA. It is filed as binding. The conditions noted are these: 2 mM compound, 1 mM MeGal. On the procedure: (§1) The ^1H-^15N TROSY pulse sequence trosyf3gpphsi19 with 128 increments and 32 scans per increment was applied for 0.15 mM ^15N LecA and 0.07 mM LecB in HBS/Ca^2+ buffer (20 mM HEPES pH 7.4, 150 mM NaCl, 10 mM CaCl2, 10% D2O and 100 µM sodium trimethylsilylpropanesulfonate (DSS) as internal reference) at 310 K. The ^1H-^15N HSQC pulse sequence hsqcf3gpph19 with 128 increments and 8 scans per increment was applied for 0.1 mM ^15N DC-SIGN and Langerin CRD in HBS/Ca^2+ buffer at 298 K. For screening of 650 non-fluorinated fragments of the general library against ^15N LecA, a mix of 10 compounds at 1 mM each was combined with 0.15 mM ^15N LecA in HBS/Ca^2+ buffer (20 mM HEPES pH 7.4, 150 mM NaCl, 10 mM CaCl2, 10% D2O and 100 µM sodium trimethylsilylpropanesulfonate (DSS) as internal reference, whereas the fragments with the MBP scaffolds were validated separately at 1 mM. Similarly, 9 nonfluorinated fragments from the MBP library were screened against ^15N-labeled DC-SIGN, LecA and LecB. To validate the fragment binding to proteins, we recorded ^1H-^15N HSQC and TROSY NMR of proteins in the presence of DMSO as negative control and 2 mM fragments in HBS/Ca^2+ buffer. Natural ligands were used as positive controls at 1 mM MeGal, MeFuc and 30 mM D-mannose to LecA/LecB and DC-SIGN CRD/Langerin CRD, respectively. Titration experiments with ^15N-labeled DC-SIGN CRD or LecB were recorded in HBS/Ca^2+ buffer with 30 mM CaCl2 and 0.25 to 4–8 mM malonic acid derivatives. The Kd values were calculated according to the one-site-binding model in Origin(Pro) 2020b (OriginLab Corp., USA). Ligand efficiency calculations were done according to Eq. (1) for a temperature of 298 K and 310 K for DC-SIGN CRD and LecB, respectively.1 LE=RTlnKd/HA, with the temperature T [K], the gas constant R [kcal mol^−1 K^−1], and the number of non-hydrogen atoms HA[56].
All data were processed with NMRpipe[65] and analyzed with CcpNmr analysis. For data analysis, the protein fingerprint of ^15N DC-SIGN (Table S7) or Langerin CRD was assigned as reported previously. The ^1H-^15N TROSY resonances of ^15N LecA and ^15N LecB were indexed with IDs due to a lack of protein backbone resonance assignment (Tables S8-S9). Next, resonance IDs from protein spectra were transferred to the spectra obtained in the presence of compounds in order to compare the changes in chemical shift perturbations for the fast exchange peaks. The changes in chemical shift perturbations (CSPs) were calculated according to Eq. (2):2 △δ=1/2△δH2+α△δN^2 in which δ is the difference in chemical shift (in ppm) and α is an empirical weighting factor of 0.14 for all amino acid backbone resonances. The threshold value was set based on three independent measurements of reference spectra to 0.01 ppm for LecA, LecB, DC-SIGN CRD and Langerin CRD.

In a further test the target is T4, LecB (PA-IIL) (Pseudomonas aeruginosa, UniProt Q9HYN5).
T4 construct: made in house
T4 sequence (Q9HYN5 entry or part of it): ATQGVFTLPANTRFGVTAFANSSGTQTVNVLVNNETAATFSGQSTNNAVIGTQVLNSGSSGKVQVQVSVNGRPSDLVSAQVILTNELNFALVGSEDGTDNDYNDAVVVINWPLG
As to the kind of experiment: 1H-15N TROSY NMR with 15N LecB. It is filed as binding. The settings on record: 2 mM compound. As for the experimental part: as §1, with “Ligand efficiency calculations were done according to Eq. (1) for a temperature of 298 K and 310 K for DC-SIGN CRD and LecB, respectively.1 LE=RTlnKd/HA, with the temperature T [K], the gas constant R [kcal mol^−1 K^−1], and the number of non-hydrogen atoms HA[56].” left out
All data were processed with NMRpipe[65] and analyzed with CcpNmr analysis. […] The changes in chemical shift perturbations (CSPs) were calculated according to Eq. (2):2 △δ=1/2△δH2+α△δN^2 in which δ is the difference in chemical shift (in ppm) and α is an empirical weighting factor of 0.14 for all amino acid backbone resonances. […]

The target in test [4] is T1, LecA. As to the kind of experiment: Competitive 19F T2-filtered NMR with reporter 5. It is filed as binding. The conditions noted are these: 0.1 mM 5, 10 mM CaCl2, 3 mM competitor. As for the experimental part:
The analogs of 1 (5) and 58 (61) were used as fluorinated spy molecules in ^19F T2-filtered NMR experiments. Two samples containing 0.1 mM 5 or 61 alone or a 10 µM protein in TBS/EDTA buffer followed by addition of 10 mM CaCl2 and the carbohydrates: 1 mM MeGal (LecA), 1 mM MeFuc (LecB/BambL) and 30 mM D-mannose (DC-SIGN/Langerin). Similarly, 0.1 mM 5 was used to prioritize hydroxamate derivatives, where 3 mM analogs of 1 were added to the samples instead of the carbohydrates. The ^19F and ^19F T2-filtered spectra were recorded with 64 scans, a spectral width of 5 ppm, a transmitter offset at −155.5 ppm (5) and −155.5 ppm (61), the acquisition time of 0.8 s, 2 s relaxation time applying a T2-filter of 384 ms. All spectra were analyzed as described above.

Test [5] deals with T1, LecA. The conditions noted are these: carbohydrate ligand; cited from earlier work.

T1 sequence (Q05097 whole entry): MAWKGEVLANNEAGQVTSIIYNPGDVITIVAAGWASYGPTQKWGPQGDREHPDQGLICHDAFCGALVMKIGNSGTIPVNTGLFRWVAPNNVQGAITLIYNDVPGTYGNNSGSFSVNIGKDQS
T3 sequence (Q05097 whole entry): as above

For `CC(=O)N[C@H]1C(O)O[C@H](CO)[C@H](O)[C@@H]1O` (stereo partly drawn) [GalNAc], the IC50 at LecA [1] was 1230 ± 200 µM.
The molecule `NC(C(=O)NO)c1ccccc1` (stereo not drawn) [compound 1] yielded a Kd on 5FW LecA (PA-IL) of 7200 ± 1400 µM. Also, the LE at 5FW LecA (PA-IL) (ligand efficiency calculated from Kd for LecA, 310 K) is on record as 0.25 kcal mol^−1 HA^−1. Further, the “Efficiency in SPR (normalized binding response)” value at LecA [2] turned out to be 11.6%. Moreover, the inhibition at 4000 µM on LecA [3] came to 6%. Besides, the “total % of CSPs normalized to MeGal in 15N LecA” value on 15N LecA came to 40%. Also, the “binding to 15N LecB in TROSY NMR” value on LecB (PA-IIL) was “did not bind”. For the same molecule, the “competition of reporter 5 from LecA (recovery of 19F peak)” value at LecA [4] is “did not displace”.
As for `OC[C@H]1O[C@H](O)[C@H](O)[C@@H](O)[C@H]1O` [α-D-galactose], the Kd at LecA [5] was 50 µM.

Broadly, the IC50 is the midpoint of a concentration-inhibition curve. The term Kd denotes the equilibrium constant for the complex coming apart. What is called inhibition is the percentage by which the read-out fell short of the control.
